Paper PMC6754136 (PLoS ONE, 2019)
Entries after “also recorded” stand apart in the source; their conditions may differ. Where two headings read alike, the source gives them in different places.

Assays:
[1] = target: purified recombinant human PDE5 (Homo sapiens, UniProt O76074); assay: in vitro PDE5 inhibition assay measuring GMP production from cGMP (HPLC-UV-MS); format: biochemical; conditions: for Fold improved potency (fold change in IC50 compared to icariin): relative to icariin
Protocol: STRENDA guidelines were considered in the description of the following enzyme activity assays. PDE5 inhibition and kinetics assays were carried out according to the method of Kincaid and Manganiello [31] and Dell’Agli et al. 1 nM recombinant human PDE5 (catalytic domain consisting of amino acids 537–875, Abcam, ab125581) was pre-incubated with PDE5 inhibitors (synthesized in-house as described above or purchased from Selleck Chemicals) in 40 mM tris-hydrochloric acid, pH 7.8, containing 10 mM MgCl2. […]. PDE5 inhibitors were added to each reaction using a Hewlett-Packard D300 Digital Dispenser (Tecan). Maximum DMSO concentration was 0.1% of the final reaction volume for all samples. After incubation at 25 °C for 5 minutes to allow interaction between PDE5 and drugs, the reaction was started with the addition of 0.3 μM cGMP (Enzo Life Sciences, Inc.) and incubated at 25 °C for 15 minutes. The final reaction volume was 100 μL. Reactions were stopped with the addition of 100 μL of 0.1 M HCl and neutralized by adding 0.1 M NaOH until the pH was 7. […] The amount of GMP produced was measured by HPLC-UV-MS as described in the general procedures. Reaction mixture components were separated with a ramp gradient of solvent A and B run at a flow rate of 0.5 mL/min as follows: 0–4 minutes 0% B, 4–7 minutes 0–95% B, 7–8 minutes 95% B, 8–11.1 minutes 0% B. GMP was measured using selected reaction monitoring in positive mode for a centroid center mass of 152.
A calibration curve using known concentrations of GMP was generated using the HPLC-UV-MS method described above to quantify the absolute amount of GMP in each reaction (S13 Fig). The linear range was from 5.9 nM to 3 μM. The limit of detection (LOD), defined as the lowest concentration producing a detectable peak above background, was 0.1 nM. The lower limit of quantification (LLOQ), defined as the lowest concentration used to generate a standard curve with r^2 > 0.95, was 5.9 nM. The upper limit of quantification (ULOQ), defined as the highest concentration used to generate a standard curve with r^2 > 0.95, was 3 μM. A GMP calibration curve was generated with each individual run of the HPLC-UV-MS.
To measure the IC50 as a result of treatment with each icariin analog, the in vitro inhibition enzyme assay as described above was performed, and GMP levels were normalized to no-drug controls and multiplied by 100 to obtain the percent PDE5 activity. IC50 mean ± SEM values were determined by nonlinear-regression fitting of the percent PDE5 activity data using the [inhibitor] vs response–variable slope (four parameters) equation in Prism (version 7.0a and version 8). Top value was constrained to 100, all other parameters were unconstrained. To obtain the dose-response curves for visual confirmation of the best-fit line, we executed a nonlinear regression fitting using the log(inhibitor) vs. response—variable slope (four parameters) equation in Prism. […] AICc analysis (built into Prism) was used to confirm the best-fitting inhibition model. […] Inhibition models were also compared via visual inspection of the fit of the calculated curves on the Michaelis-Menten plots.

bovine trypsin = target: T1, bovine trypsin (Bos taurus, UniProt P00760); assay: PAINS assay: non-specific inhibition of trypsin; format: biochemical; conditions: 1x and 10x the PDE5 IC50 (3 and 7 also 50x, 250x); luteolin 50, 100, 250 μM
T1 construct: purchased Sigma-Aldrich T1426
T1 sequence (P00760 24-246): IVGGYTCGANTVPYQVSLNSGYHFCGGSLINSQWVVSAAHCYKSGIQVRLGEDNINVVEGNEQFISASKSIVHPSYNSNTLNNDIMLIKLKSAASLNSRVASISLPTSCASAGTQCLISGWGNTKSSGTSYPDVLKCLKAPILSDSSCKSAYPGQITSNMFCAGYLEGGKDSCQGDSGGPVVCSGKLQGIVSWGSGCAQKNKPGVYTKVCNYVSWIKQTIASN
Protocol: In assay buffer (50 mM Tris-HCl, 20 mM CaCl2, pH 8.19 with or without 0.5% igepal), 0.002 mg freshly made trypsin is incubated with drugs for 5 minutes at 25 °C. 1 mM of substrate (Nα-benzoyl-L-arginine 4-nitroanilide hydrochloride, Sigma-Aldrich, B3133) is added to start the reaction. Final reaction volume is 100 μl. Product formation is monitored by increasing absorbance at 410 nm at 25 °C for 30 minutes in kinetic mode using a SpectraMax M5 plate reader (Molecular Devices). All values were measured in duplicate.

human PDE5 = conditions: PDE5, competitive inhibitors; cited from earlier work
PDE6 isoforms = tested on: PDE6 isoforms; design: method as in PMID 16780568, PMID 16123402; conditions: cited from earlier work
recombinant human PDE5 = recombinant human PDE5 (Homo sapiens, UniProt O76074); assay: in vitro PDE5 kinetics assay (nonlinear regression, AICc model comparison); format: biochemical
Protocol: guidelines were considered in the description of the following enzyme activity assays. […] For kinetics assays, 0.015, 0.05, and 0.2 μM of compounds 3 and 7 were used. […] Maximum DMSO concentration was 0.1% of the final reaction volume for all samples. […] The final reaction volume was 100 μL. Reactions were stopped with the addition of 100 μL of 0.1 M HCl and neutralized by adding 0.1 M NaOH until the pH was 7. […] Reaction mixture components were separated with a ramp gradient of solvent A and B run at a flow rate of 0.5 mL/min as follows: 0-4 minutes 0% B, 4-7 minutes 0-95% B, 7-8 minutes 95% B, 8-11.1 minutes 0% B. GMP was measured using selected reaction monitoring in positive mode for a centroid center mass of 152. […] Top value was constrained to 100, all other parameters were unconstrained. To obtain the dose-response curves for visual confirmation of the best-fit line, we executed a nonlinear regression fitting using the log(inhibitor) vs. response-variable slope (four parameters) equation in Prism. […] AICc analysis (built into Prism) was used to confirm the best-fitting inhibition model. […] Inhibition models were also compared via visual inspection of the fit of the calculated curves on the Michaelis-Menten plots.

[2] = target: T2, partially purified recombinant human PDE6C (Homo sapiens, UniProt P51160); assay: PDE6C inhibition assay (GMP production); format: biochemical; conditions: for PDE6C inhibition, statistical significance: at 50x the PDE5 IC50, vs theoretical uninhibited mean of 100%
T2 construct: partially purified recombinant full-length human PDE6C; purchased SB Drug Discovery; host or cells: insect cells
T2 sequence (P51160 whole entry): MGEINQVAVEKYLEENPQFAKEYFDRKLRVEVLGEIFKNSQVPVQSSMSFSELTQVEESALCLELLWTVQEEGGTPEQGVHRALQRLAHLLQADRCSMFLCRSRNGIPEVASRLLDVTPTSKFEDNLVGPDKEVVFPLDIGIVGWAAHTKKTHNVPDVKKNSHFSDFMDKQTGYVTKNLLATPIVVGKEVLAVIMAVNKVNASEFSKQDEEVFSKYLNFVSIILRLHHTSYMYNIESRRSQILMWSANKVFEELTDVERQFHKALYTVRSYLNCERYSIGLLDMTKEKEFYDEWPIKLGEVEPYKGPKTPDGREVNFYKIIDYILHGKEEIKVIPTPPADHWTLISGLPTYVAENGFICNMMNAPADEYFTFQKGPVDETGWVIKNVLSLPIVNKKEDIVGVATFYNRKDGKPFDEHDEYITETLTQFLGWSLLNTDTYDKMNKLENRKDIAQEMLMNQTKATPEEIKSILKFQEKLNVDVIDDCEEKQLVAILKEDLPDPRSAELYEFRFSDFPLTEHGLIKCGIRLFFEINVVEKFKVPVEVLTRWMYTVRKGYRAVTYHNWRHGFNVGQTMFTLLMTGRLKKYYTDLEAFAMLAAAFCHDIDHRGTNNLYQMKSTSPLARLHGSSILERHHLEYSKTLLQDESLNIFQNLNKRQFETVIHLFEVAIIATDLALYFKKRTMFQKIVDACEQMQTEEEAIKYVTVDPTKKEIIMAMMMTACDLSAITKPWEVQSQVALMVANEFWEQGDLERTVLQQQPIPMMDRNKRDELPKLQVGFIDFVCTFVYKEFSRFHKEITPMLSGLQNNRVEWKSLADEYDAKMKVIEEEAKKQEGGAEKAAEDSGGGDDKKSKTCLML
Protocol: PDE6C inhibition was measured using the same method as described for PDE5 with modifications. […] The final reaction volume was 50 μL. […] Reactions were stopped as described above for PDE5 enzyme assays, and GMP was quantified as described above. […] The amount of GMP produced in these samples was subtracted from all samples before normalizing against untreated controls.

[3] = mitochondrial viability assay with resazurin; format: cell-based, human; conditions: human, 0.01–10 μM; for viability at 3 days, 10 μM: four cell lines, even at the highest concentration tested (10 μM)
Protocol: (§1) The human cell lines SH-SY5Y (SY5Y, ATCC CRL-2266), SK-MEL-5 (SKMEL-5, ATCC HTB-70), and NCI-H187 (H187, ATCC CRL-5804) were cultured in RPMI medium supplemented with 10% FBS and no antibiotics. These three cell lines were generously provided by the laboratory of Susan Lindquist via Luke Whitesell (currently at the University of Toronto, Toronto, ON, Canada). BJ-hTERT (described in [27], generously provided by Robert Weinberg, Whitehead Institute, Cambridge MA, USA) was cultured in 4:1 DMEM:M199 medium supplemented with 15% FBS and no antibiotics. All cell lines were grown and assayed at 37 °C, 5% CO2. All cell lines were screened for mycoplasma contamination by PCR (Mycoscope Detection Kit, Fisher Scientific) before use in assays.
(§2) For viability assays, cells were plated in black, clear bottom 384-well tissue culture-treated plates (Corning) and incubated overnight in the media described above but supplemented with 50 U/mL penicillin-streptomycin antibiotic (Life Technologies). Then, DMSO (no drug controls) and PDE5 inhibitors (0.01–10 μM; synthesized as described above or purchased from Selleck Chemicals) were added using a Hewlett-Packard D300 Digital Dispenser (Tecan) and incubated for 3 days. Maximum DMSO concentration was normalized to 0.1% of the total well volume for all wells. Resazurin (R & D Systems) was diluted 1:20 into each well and incubated for up to 4 hours. Fluorescence was read in a Tecan plate reader (excitation = 570 nm, emission = 585 nm). Wells treated with PDE5 inhibitors were normalized against control wells treated with DMSO to measure percent mitochondrial viability (100 = no effect on mitochondrial viability).

BJ-hTERT cells = assay: cellular GMP levels after inhibitor treatment; format: cell-based, human; conditions: 20 μM inhibitor, 1 hour; mean ± SEM; p<0.001
Protocol: For assaying PDE5 inhibitor effects on GMP levels in a cell line, BJ-hTERT cells were plated in 6-well plates (Corning) in the media described above. When cells were 80% confluent, fresh, pre-warmed media with DMSO (untreated controls) or 20 μM sildenafil, 3, or 7 was added and incubated for 1 hour. Maximum DMSO concentration in all samples was 0.2% of the total well volume. Cells were washed once with cold 0.9% NaCl. 800 μL of 80:20 methanol:water spiked with 500 nM isotopically labeled amino acids as internal standards was added while cells were on dry ice. Cells were detached with a cell scraper. Extracts were vortexed for 10 minutes and centrifuged at maximum speed at 4 °C to remove debris. Extracts were dried down in a vacuum dryer and stored at -80 °C. An additional sample was reserved for visual inspection of cell health by confocal light microscopy and for cell counting with a hemocytometer. Three independent assays were conducted in total, with 1–2 replicates per assay. To analyze GMP levels, samples were reconstituted in 50 μL LC-MS grade water and analyzed by HPLC-UV-MS as described in the general procedures and for enzyme inhibition and kinetics assays. The amino acid standards were analyzed in full scan positive mode with mass windows m/z 50–800. GMP peak areas were normalized to the peak area of the internal standard ^13C4, ^15N-threonine or ^13C6, ^15N3-histidine to account for variations in extraction or resuspension volume. The peak areas were then normalized to the average GMP peak area in undrugged controls and multiplied by 100 to obtain the percent GMP.

[4] = tested on: SH-SY5Y, SK-MEL-5, BJ-hTERT and NCI-H187 cell lines; assay: mitochondrial viability assay with resazurin; format: cell-based, human; conditions: 0.01–10 μM, 3 days
Protocol: as §1, §2

[5] = tested on: lysate of COS-7 cells expressing human PDE5; design: method as in PMID 18778098; conditions: cited from earlier work
[6] = tested on: human PDE5 catalytic domain; design: method as in PMID 16735511; conditions: cited from earlier work

COc1ccc(-c2oc3c(CC=C(C)C)c(O)cc(O)c3c(=O)c2O)cc1 [Compound 9, Icaritin]
IC50 [1]: 1.8 ± 0.8 µM | Fold improved potency (fold change in IC50 compared to icariin) [1]: 3 fold | inhibition of trypsin activity (bovine trypsin): statistically significant inhibition of trypsin activity (p<0.05)

CCCc1nc(C)c2c(=O)[nH]c(-c3cc(S(=O)(=O)N4CCN(CC)CC4)ccc3OCC)nn12 [vardenafil]
IC50 (human PDE5): […] | inhibition of PDE6 isoforms (PDE6 isoforms): show inhibition of PDE6 isoforms

COc1ccc(-c2oc3c(CC=C(C)C)c(OC4OC(CO)C(O)C(O)C4O)cc(O)c3c(=O)c2OCCO)cc1 (stereo not drawn) [Compound 3, 3-O-(2-Hydroxyethyl)-Icariside I]
fold increase in potency compared to the corresponding unglycosylated analog ([1]; 3 vs 6, 5 vs 8): 5 fold | Preferred model (recombinant human PDE5; AICc comparison of competitive vs noncompetitive inhibition): Competitive inhibition | Preferred model (recombinant human PDE5; AICc comparison of competitive vs uncompetitive inhibition): Competitive inhibition | probability that the competitive inhibition model is correct (recombinant human PDE5; AICc, compared to a noncompetitive or uncompetitive model): > 99% | Probability it is correct (competitive inhibition) (recombinant human PDE5; AICc, competitive vs noncompetitive inhibition): 99.97% | Probability it is correct (competitive inhibition) (recombinant human PDE5; AICc, competitive vs uncompetitive inhibition): >99.99% | mode of inhibition (recombinant human PDE5; Lineweaver-Burk plot and AICc analysis): competitive inhibitor; also recorded: inhibits PDE5 competitively | specificity for PDE5 over PDE6C [2]: shows specificity for PDE5 over PDE6C | PDE6C inhibition, statistical significance [2]: do not show any statistically significant PDE6C inhibition | viability at 3 days, 10 μM [3]: > 70% | cellular GMP concentration, % of the GMP concentration in untreated control cells (BJ-hTERT cells): 9 ± 0.6%

O=c1cc(-c2ccc(O)c(O)c2)oc2cc(O)cc(O)c12 [luteolin, reference compound]
inhibition of trypsin activity (bovine trypsin): statistically significant inhibition of trypsin activity (p<0.001)

COc1ccc(-c2oc3c(CC=C(C)C)c(O)cc(O)c3c(=O)c2OCCO)cc1 [Compound 6, 3-O-(2-Hydroxyethyl)-Icaritin]
IC50 ([1]; 1 nM PDE5 catalytic domain, 0.3 μM cGMP, 25 °C, 15 min, mean of at least three replicates ± SEM, read-out: IC50): 0.4 ± 0.2 µM | Fold improved potency (fold change in IC50 compared to icariin) [1]: 15 fold | viability at 3 days ([3]; marked reduction in at least one cell line): ≤ 70% | effect on viability across cell lines [4]: marked reduction in viability of all four cell lines

CCCc1nn(C)c2c(=O)[nH]c(-c3cc(S(=O)(=O)N4CCN(C)CC4)ccc3OCC)nc12 [sildenafil, reference compound]
PDE6C inhibition, statistical significance [2]: do not show any statistically significant PDE6C inhibition | % PDE6C activity remaining ([2]; inhibitor at 50x its PDE5 IC50 (sildenafil 1.5 μM, 3 and 7 5 μM), 14 μM cGMP, 1 hour, mean ± SEM): 78 ± 13% | viability at 3 days, 10 μM [3]: > 70% | cellular GMP concentration, % of the GMP concentration in untreated control cells (BJ-hTERT cells): 7 ± 1% | IC50 (human PDE5): […] | inhibition of PDE6 isoforms (PDE6 isoforms): show inhibition of PDE6 isoforms

Icariside II [Compound 1]
fold improvement in PDE5 inhibition compared to icariin [5]: 34 fold | IC50 ([5]; lysate of COS-7 cells expressing human PDE5): 0.16 µM | mode of inhibition suggested by the crystal structure [6]: binds to the active site as a competitive inhibitor
